Results reported in ChEMBL document CHEMBL5260810, “Inhibition of bromodomain-containing protein 9 for the prevention of epigenetically-defined drug resistance” (Bioorg Med Chem Lett, 2017).
Activity calls are given as the source filed them. The calls are words filed in the database; no cut-off is given here.

Legend:
NCI-H460 [1] = assay: Antiproliferative activity against human NCI-H460 cells assessed as reduction in colony formation up to 20 uM supplemented with fresh medium containing compound every 3 days for 9 days by MTT staining based clonogenic assay; format: functional, cell-based; conditions: time 9.0 day
NCI-H23 = assay: Antiproliferative activity against human NCI-H23 cells assessed as reduction in colony formation up to 20 uM supplemented with fresh medium containing compound every 3 days for 9 days by MTT staining based clonogenic assay; format: functional, cell-based; conditions: time 9.0 day
[2] = molecular target: T1, Bromodomain-containing protein 9 (Homo sapiens) (UniProt Q9H8M2); assay: Inhibition of BRD9 in human PC-9 cells assessed as reduction in ALDH1A1 gene expression at 5 uM preincubated with erlotinib for 8 days followed by compound addition and measured after 24 hrs by RNA sequencing analysis; format: cell-based
T1 sequence (whole entry): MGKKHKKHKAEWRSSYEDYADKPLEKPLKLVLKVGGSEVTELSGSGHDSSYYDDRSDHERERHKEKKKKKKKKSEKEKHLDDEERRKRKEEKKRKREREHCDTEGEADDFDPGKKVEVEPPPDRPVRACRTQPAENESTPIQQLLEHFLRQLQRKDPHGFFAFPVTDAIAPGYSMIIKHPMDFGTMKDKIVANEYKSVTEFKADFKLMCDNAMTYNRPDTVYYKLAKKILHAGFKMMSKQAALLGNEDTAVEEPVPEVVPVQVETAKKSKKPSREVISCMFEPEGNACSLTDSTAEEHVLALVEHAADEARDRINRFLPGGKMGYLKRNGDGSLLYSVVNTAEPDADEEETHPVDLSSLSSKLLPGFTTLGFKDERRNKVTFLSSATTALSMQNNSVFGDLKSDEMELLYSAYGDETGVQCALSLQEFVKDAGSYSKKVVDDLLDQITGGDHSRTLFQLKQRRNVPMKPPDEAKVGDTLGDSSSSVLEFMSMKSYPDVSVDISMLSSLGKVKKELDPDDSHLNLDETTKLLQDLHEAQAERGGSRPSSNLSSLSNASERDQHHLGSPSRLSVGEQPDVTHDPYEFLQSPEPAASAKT

T47D = assay: Cytotoxicity against human T47D cells measured after 3 days; format: functional, cell-based; conditions: 72 h
[3] = Cytotoxicity against human NCE-G 84 cells measured after 3 days; format: functional, cell-based; conditions: NCE-G 84, 72 h
T98G = assay: Cytotoxicity against human T98G cells measured after 3 days; format: functional, cell-based; conditions: 72 h
SNU-182 = assay: Cytotoxicity against human SNU-182 cells measured after 3 days; format: functional, cell-based; conditions: SNU-182, 72 h
NCI-H460 [4] = assay: Cytotoxicity against human NCI-H460 cells measured after 3 days; format: functional, cell-based; conditions: NCI-H460, 72 h
[5] = Cytotoxicity against human 59M cells measured after 3 days; format: functional, cell-based; conditions: 72 h
PC-9 = assay: Cytotoxicity against human PC-9 cells assessed as growth inhibition at 2 uM supplemented with fresh medium containing compound every 3 days for 9 days by Beckman Coulter counting method; format: functional, cell-based; conditions: time 9.0 day
TYK-nu = assay: Cytotoxicity against human TYK-nu cells measured after 3 days; format: functional, cell-based; conditions: 72 h
MHH-PREB-1 = assay: Cytotoxicity against human MHH-PREB-1 cells measured after 3 days; format: functional, cell-based; conditions: MHH-PREB-1, 72 h
[6] = Cytotoxicity against human MT-3 cells measured after 3 days; format: functional, cell-based; conditions: MT-3, 72 h
[7] = Cytotoxicity against human HCC1428 cells measured after 8 days; format: functional, cell-based; conditions: HCC1428, 192 h
[8] = Cytotoxicity against human COLO-704 cells measured after 3 days; format: functional, cell-based; conditions: COLO 704, 72 h
[9] = Cytotoxicity against human OVCA 420 cells measured after 3 days; format: functional, cell-based; conditions: OVCA 420, 72 h
[10] = Cytotoxicity against human KMS-34 cells measured after 3 days; format: functional, cell-based; conditions: KMS-34, 72 h
DB = assay: Cytotoxicity against human DB cells measured after 3 days; format: functional, cell-based; conditions: 72 h
[11] = Lipophilicity, log D of the compound at pH 7.4; format: physicochemical; conditions: buffer
[12] = Cytotoxicity against human EFM-192C cells measured after 8 days; format: functional, cell-based; conditions: 192 h
[13] = Cytotoxicity against human Ri-1 cells measured after 3 days; format: functional, cell-based; conditions: Ri-1, 72 h
KG-1 = assay: Cytotoxicity against human KG-1 cells measured after 3 days; format: functional, cell-based; conditions: KG-1, 72 h
OAW-28 = assay: Cytotoxicity against human OAW28 cells measured after 3 days; format: functional, cell-based; conditions: OAW-28, 72 h
[14] = Cytotoxicity against human NCE-G 130 cells measured after 3 days; format: functional, cell-based; conditions: NCE-G 130, 72 h
SET-2 = assay: Cytotoxicity against human SET2 cells measured after 3 days; format: functional, cell-based; conditions: SET-2, 72 h
MDA-MB-361 = assay: Cytotoxicity against human MDA-MB-361 cells measured after 3 days; format: functional, cell-based; conditions: MDA-MB-361, 72 h
[15] = Cytotoxicity against human MOLM16 cells measured after 3 days; format: functional, cell-based, MOLM-16; conditions: MOLM16, 72 h
NAMALVA = assay: Cytotoxicity against human NAMALVA cells measured after 3 days; format: functional, cell-based; conditions: 72 h
HCC95 = assay: Cytotoxicity against human HCC95 cells measured after 3 days; format: functional, cell-based; conditions: HCC95, 72 h
EB-3 = assay: Cytotoxicity against human EB-3 cells measured after 3 days; format: functional, cell-based; conditions: EB-3, 72 h
[16] = Cytotoxicity against human TYK-nu.CP-r cells measured after 3 days; format: functional, cell-based; conditions: 72 h
NCI-H929 = assay: Cytotoxicity against human NCI-H929 cells measured after 3 days; format: functional, cell-based; conditions: NCI-H929, 72 h
[17] = Cytotoxicity against human HCC193 cells after 8 days; format: functional, cell-based; conditions: HCC193, 192 h
CAL-12T = assay: Cytotoxicity against human CAL-12T cells measured after 3 days; format: functional, cell-based; conditions: 72 h
[18] = Cytotoxicity against human KP-3L cells measured after 3 days; format: functional, cell-based; conditions: 72 h
DU-4475 = assay: Cytotoxicity against human DU-4475 cells after 8 days; format: functional, cell-based; conditions: DU-4475, 192 h
KU812 cell line = assay: Cytotoxicity against human KU812 cell line measured after 3 days; format: functional, cell-based; conditions: KU812, 72 h
[19] = Cytotoxicity against human KMS-27 cells measured after 3 days; format: functional, cell-based; conditions: KMS-27, 72 h
HBL-100 = assay: Cytotoxicity against human HBL-100 cells measured after 8 days; format: functional, cell-based; conditions: HBL-100, 192 h
Calu-6 = assay: Cytotoxicity against human Calu-6 cells after 8 days; format: functional, cell-based; conditions: Calu-6, 192 h
[20] = Cytotoxicity against human OCI-M2 cells measured after 3 days; format: functional, cell-based; conditions: OCI-M2, 72 h
ML-2 = assay: Cytotoxicity against human ML-2 cells measured after 3 days; format: functional, cell-based; conditions: ML-2, 72 h
[21] = Cytotoxicity against human NCE-G 112 cells measured after 3 days; format: functional, cell-based; conditions: NCE-G 112, 72 h
HCC1395 = assay: Cytotoxicity against human HCC1395 cells measured after 3 days; format: functional, cell-based; conditions: HCC1395, 72 h
[22] = Cytotoxicity against human OVCA429 cells measured after 3 days; format: functional, cell-based; conditions: OVCA429, 72 h
[23] = Cytotoxicity against human OV7 cells measured after 3 days; format: functional, cell-based; conditions: OV7, 72 h
[24] = Cytotoxicity against human KMM-1 cells measured after 3 days; format: functional, cell-based; conditions: KMM-1, 72 h

## C/C=C/Cn1cc(-c2ccc(C(C)(C)O)cc2OC)c2cc[nH]c2c1=O
NCI-H460 [1]
  Activity: inactive
NCI-H23
  Activity: inactive
[2]
  inhibition: Active

## C/C=C/Cn1cc(-c2cc(OC)c(C(=O)N3CCOCC3)cc2OC)c2cc(C)[nH]c2c1=O
T47D
  IC50: 5 µM
[3]
  IC50: 5 µM
T98G
  IC50: 5 µM
SNU-182
  IC50: 5 µM
NCI-H460 [4]
  IC50: 5 µM
[5]
  IC50: 5 µM
PC-9
  Activity: inactive
TYK-nu
  IC50: 5 µM
MHH-PREB-1
  IC50: 5 µM
[6]
  IC50: 5 µM
[7]
  IC50: 2 µM
[8]
  IC50: 5 µM
[9]
  IC50: 5 µM
[10]
  IC50: 5 µM
DB
  IC50: 5 µM
[11]
  logD: 2.4
[12]
  IC50: 2 µM
[13]
  IC50: 5 µM
KG-1
  IC50: 5 µM
OAW-28
  IC50: 5 µM
[14]
  IC50: 5 µM
SET-2
  IC50: 5 µM
MDA-MB-361
  IC50: 5 µM
[15]
  IC50: 5 µM
NAMALVA
  IC50: 5 µM
HCC95
  IC50: 5 µM
EB-3
  IC50: 5 µM
[16]
  IC50: 5 µM
NCI-H929
  IC50: 5 µM
[17]
  IC50: 2 µM
CAL-12T
  IC50: 5 µM
[18]
  IC50: 5 µM
DU-4475
  IC50: 2 µM
KU812 cell line
  IC50: 5 µM
[19]
  IC50: 5 µM
HBL-100
  IC50: 2 µM
Calu-6
  IC50: 2 µM
[20]
  IC50: 5 µM
ML-2
  IC50: 5 µM
[21]
  IC50: 5 µM
HCC1395
  IC50: 5 µM
[22]
  IC50: 5 µM
[23]
  IC50: 5 µM
[24]
  IC50: 5 µM
